SMILES strings stand for the structures.

Our source for the Kd values is doi:10.1101/534982v1 (biorxiv, 2019).

Common to all, as to assay: fluorescence reverse titration
One experiment concerns the target actin binding domain (Homo sapiens, UniProt P11277).
The next experiment concerns the target T1, SH3 domain (Homo sapiens, UniProt P02549).
T1 sequence (P02549 973-1055): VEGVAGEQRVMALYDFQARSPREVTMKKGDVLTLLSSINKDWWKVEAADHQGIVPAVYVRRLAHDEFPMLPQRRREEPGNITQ
In kind it is binding.

The next experiment addresses T2, α-tetramerization domain (Homo sapiens, UniProt P02549).
T2 sequence (P02549 1-158): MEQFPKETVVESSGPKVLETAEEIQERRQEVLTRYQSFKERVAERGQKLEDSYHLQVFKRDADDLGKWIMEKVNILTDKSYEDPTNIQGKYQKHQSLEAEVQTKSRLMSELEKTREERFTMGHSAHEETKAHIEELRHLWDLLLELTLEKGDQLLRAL
In kind it is binding.

Experiment [1] deals with T3, Self-association domain (reconstituted) (Homo sapiens, UniProt P02549+P11277).
T3 sequence (P02549 1-158): T2 sequence (P02549 1-158)
T3 sequence (P11277 1895-2137): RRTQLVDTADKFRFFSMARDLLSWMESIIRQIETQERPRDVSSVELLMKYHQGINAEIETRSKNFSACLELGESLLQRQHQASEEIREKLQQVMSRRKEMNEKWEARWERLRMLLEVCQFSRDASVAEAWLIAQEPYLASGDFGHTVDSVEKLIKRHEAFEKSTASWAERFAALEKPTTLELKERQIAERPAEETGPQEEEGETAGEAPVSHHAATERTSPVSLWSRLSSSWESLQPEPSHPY
The format is binding.

The target of a further experiment is T4, ankyrin binding domain (Homo sapiens, UniProt P11277).
T4 sequence (P11277 1657-1876): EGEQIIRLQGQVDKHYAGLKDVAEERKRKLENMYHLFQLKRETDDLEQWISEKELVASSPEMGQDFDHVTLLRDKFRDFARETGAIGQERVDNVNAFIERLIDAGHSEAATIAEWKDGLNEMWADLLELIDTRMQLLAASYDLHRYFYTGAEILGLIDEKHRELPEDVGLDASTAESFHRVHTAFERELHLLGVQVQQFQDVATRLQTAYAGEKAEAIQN

The next experiment addresses T5, α-dimerization domain (Homo sapiens, UniProt P02549).
T5 sequence (P02549 2002-2233): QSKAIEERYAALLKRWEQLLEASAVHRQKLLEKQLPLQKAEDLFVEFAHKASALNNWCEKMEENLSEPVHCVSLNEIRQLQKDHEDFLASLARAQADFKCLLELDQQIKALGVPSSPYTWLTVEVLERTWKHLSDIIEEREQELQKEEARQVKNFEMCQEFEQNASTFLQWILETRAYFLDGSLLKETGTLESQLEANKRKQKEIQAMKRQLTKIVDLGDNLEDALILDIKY
The format is binding.

The next experiment has as its target T6, β-tetramerization domain (Homo sapiens, UniProt P11277).
T6 sequence (P11277 1895-2137): T3 sequence (P11277 1895-2137)
The format is binding.

A further experiment addresses T7, spectrin repeat domain (Homo sapiens, UniProt P02549).
T7 sequence (P02549 1470-1576): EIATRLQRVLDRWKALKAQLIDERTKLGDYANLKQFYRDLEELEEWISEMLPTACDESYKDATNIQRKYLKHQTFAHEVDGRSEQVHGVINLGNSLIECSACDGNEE
In kind it is binding.

The target in a further experiment is β-dimerization domain (Homo sapiens, UniProt P11277). In kind it is binding.
β-dimerization domain, sequence (P11277 271-500): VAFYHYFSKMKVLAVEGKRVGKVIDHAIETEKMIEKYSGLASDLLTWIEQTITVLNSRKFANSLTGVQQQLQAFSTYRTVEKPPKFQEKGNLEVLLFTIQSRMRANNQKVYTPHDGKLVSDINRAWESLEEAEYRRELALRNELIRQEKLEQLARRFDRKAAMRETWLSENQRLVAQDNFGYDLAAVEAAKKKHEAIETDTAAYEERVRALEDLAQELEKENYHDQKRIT
The target in experiment [2] is Spectrin (dimeric human erythroid spectrin) (Homo sapiens, UniProt P02549+P11277). In kind it is binding.
Spectrin (dimeric human erythroid spectrin), sequence (P02549 whole entry): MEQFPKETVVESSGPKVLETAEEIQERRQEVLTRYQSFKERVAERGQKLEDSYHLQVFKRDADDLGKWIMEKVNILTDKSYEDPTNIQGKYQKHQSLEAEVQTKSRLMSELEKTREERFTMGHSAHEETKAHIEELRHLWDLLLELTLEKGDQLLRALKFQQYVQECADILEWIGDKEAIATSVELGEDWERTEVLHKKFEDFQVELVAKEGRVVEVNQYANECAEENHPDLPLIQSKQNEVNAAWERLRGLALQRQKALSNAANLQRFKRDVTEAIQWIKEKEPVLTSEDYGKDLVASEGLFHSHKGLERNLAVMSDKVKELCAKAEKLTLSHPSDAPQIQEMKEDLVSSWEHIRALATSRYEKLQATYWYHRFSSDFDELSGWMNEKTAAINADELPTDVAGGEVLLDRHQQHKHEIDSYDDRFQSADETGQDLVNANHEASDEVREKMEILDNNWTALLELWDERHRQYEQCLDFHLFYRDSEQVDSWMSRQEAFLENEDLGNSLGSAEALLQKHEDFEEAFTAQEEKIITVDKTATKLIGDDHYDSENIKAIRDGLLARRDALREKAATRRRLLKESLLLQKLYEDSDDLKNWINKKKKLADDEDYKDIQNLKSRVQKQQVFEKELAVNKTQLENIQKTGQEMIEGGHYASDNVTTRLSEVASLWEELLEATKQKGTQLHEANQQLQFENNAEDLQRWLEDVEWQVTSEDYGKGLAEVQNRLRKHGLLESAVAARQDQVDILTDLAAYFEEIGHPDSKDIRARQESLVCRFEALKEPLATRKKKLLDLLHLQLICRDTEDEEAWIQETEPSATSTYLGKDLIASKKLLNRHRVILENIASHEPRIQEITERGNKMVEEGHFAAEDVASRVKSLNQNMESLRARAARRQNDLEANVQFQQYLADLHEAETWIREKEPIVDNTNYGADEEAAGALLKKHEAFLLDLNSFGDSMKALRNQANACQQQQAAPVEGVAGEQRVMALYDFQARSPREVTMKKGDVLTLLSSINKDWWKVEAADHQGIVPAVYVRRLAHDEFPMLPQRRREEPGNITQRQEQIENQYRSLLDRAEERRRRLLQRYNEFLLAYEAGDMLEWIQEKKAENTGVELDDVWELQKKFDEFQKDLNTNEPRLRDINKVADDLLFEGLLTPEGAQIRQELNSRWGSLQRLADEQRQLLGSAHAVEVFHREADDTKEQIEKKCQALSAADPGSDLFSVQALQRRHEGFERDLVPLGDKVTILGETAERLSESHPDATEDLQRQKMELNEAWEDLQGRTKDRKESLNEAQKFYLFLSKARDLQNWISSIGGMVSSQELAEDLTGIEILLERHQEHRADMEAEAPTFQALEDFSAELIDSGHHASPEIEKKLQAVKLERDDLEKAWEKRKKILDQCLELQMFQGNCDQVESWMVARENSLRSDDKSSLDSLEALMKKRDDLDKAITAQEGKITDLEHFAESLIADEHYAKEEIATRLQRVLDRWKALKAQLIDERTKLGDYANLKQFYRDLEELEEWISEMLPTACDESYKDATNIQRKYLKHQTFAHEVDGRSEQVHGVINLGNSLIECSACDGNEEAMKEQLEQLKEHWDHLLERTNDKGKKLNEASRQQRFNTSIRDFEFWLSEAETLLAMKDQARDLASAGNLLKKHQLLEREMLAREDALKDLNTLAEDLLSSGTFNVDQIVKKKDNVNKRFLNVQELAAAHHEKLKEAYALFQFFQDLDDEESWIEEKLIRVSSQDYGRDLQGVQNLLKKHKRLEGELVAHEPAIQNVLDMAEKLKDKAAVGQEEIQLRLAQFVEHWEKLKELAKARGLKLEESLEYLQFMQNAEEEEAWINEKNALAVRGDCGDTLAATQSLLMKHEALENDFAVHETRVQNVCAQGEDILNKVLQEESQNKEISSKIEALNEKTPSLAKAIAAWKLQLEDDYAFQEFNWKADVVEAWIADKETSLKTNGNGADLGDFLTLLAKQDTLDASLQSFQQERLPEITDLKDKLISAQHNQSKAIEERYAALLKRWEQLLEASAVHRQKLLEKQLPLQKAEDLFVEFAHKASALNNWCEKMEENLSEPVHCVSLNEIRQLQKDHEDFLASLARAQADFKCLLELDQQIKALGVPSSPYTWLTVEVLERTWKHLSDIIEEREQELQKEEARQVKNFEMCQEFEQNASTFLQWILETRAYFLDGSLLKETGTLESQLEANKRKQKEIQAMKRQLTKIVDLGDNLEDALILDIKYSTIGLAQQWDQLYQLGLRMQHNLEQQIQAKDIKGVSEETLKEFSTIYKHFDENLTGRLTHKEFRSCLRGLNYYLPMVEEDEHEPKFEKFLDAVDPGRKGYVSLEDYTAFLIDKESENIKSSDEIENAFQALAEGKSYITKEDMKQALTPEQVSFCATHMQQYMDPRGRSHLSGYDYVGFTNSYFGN
Spectrin (dimeric human erythroid spectrin), sequence (P11277 2-2137): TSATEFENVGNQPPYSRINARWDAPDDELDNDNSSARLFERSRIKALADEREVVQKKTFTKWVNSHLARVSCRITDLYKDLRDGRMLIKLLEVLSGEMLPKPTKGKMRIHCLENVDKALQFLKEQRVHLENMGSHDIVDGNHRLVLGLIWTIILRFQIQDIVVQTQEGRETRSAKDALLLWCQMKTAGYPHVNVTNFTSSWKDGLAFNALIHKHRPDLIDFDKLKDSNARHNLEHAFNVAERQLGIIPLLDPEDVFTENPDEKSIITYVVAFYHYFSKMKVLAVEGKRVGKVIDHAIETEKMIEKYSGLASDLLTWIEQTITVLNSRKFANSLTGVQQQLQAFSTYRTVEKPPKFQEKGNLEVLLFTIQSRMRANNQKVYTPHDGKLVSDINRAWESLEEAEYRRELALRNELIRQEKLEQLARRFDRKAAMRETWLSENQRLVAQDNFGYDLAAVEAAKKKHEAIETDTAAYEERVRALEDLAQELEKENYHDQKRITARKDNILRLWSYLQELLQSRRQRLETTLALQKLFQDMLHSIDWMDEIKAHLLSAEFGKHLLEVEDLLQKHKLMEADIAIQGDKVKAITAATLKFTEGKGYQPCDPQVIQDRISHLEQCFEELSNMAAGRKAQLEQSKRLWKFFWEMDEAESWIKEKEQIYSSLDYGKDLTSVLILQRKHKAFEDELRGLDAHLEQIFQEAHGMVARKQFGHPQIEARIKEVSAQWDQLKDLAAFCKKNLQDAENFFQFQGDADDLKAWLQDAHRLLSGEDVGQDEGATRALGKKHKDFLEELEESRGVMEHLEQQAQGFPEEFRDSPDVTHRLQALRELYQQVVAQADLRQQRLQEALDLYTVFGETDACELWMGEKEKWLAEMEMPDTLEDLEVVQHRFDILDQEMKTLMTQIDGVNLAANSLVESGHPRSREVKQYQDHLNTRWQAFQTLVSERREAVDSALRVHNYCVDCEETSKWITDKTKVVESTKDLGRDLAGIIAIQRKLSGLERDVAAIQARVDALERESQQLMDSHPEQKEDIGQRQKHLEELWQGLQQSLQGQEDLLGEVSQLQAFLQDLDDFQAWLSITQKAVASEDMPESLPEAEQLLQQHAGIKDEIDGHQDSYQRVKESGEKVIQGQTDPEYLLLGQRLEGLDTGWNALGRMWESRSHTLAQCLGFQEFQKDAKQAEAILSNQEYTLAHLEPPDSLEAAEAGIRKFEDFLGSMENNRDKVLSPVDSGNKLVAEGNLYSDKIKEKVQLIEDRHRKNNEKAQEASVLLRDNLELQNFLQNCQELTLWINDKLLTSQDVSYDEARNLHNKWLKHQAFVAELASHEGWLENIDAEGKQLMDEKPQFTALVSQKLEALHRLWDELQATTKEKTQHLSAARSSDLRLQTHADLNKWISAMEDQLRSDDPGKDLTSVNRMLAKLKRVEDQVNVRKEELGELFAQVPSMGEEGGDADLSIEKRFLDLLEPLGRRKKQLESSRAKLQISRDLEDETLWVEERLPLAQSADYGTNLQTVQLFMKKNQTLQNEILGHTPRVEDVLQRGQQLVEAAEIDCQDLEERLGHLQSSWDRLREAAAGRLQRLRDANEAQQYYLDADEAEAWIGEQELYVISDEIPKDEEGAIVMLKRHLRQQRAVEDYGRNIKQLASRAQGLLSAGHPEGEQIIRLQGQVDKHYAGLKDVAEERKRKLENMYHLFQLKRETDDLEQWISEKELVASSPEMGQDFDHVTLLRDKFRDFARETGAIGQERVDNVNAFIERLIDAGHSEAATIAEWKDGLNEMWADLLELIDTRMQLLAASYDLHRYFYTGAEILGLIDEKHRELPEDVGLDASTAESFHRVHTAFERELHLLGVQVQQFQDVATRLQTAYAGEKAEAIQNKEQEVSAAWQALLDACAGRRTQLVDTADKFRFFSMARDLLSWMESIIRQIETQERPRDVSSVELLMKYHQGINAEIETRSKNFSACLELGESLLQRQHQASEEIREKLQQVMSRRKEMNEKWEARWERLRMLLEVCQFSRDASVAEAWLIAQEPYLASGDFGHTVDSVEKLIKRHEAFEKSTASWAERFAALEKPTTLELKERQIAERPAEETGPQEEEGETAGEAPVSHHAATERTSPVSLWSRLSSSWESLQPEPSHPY

actin binding domain, sequence (P11277 1-316): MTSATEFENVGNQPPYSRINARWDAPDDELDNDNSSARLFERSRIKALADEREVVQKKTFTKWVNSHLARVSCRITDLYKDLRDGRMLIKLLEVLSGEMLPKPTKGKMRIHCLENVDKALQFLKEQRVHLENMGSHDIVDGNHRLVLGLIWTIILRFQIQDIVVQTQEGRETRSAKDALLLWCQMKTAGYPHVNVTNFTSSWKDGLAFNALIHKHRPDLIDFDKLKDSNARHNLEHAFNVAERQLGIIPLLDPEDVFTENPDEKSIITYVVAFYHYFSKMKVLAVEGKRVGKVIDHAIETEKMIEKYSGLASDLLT

With `O=S(=O)(O)c1cccc2cccc(Nc3ccccc3)c12` [ANS, 1-anilinonaphthalene-8-sulfonic acid], the Kd was determined as 64.3 ± 3.9 µM at actin binding domain; 64 ± 2.7 µM at SH3 domain; 45.4 ± 3.1 µM at α-tetramerization domain; 38.9 ± 2.3 µM in experiment [1]; 40 ± 2.8 µM at ankyrin binding domain; 51.5 ± 3.2 µM on α-dimerization domain. The Kd at β-tetramerization domain was found to be 48.2 ± 3.3 µM; at spectrin repeat domain, 47.7 ± 2.9 µM; at β-dimerization domain, 37.2 ± 3.1 µM; in experiment [2] it was 30.1 ± 2 µM.
